Assay results published in ChEMBL document CHEMBL2203224, “Diversity of polyphenol action in Caenorhabditis elegans: between toxicity and longevity” (J Nat Prod, 2011).
Activity calls are given as the source filed them. The rule behind the calls is not given here.

Columns and labels:
[1] = test system: Caenorhabditis elegans; test: Increase of mean lifespan of L4 larvae of Caenorhabditis elegans harboring eat-2 (ad465) at 300 uM after 8 hrs; assay type: functional
[2] = test system: Caenorhabditis elegans; test: Increase of lifespan of L4 larvae of Caenorhabditis elegans after 8 hrs; assay type: functional, organism-based
[3] = test system: Caenorhabditis elegans; test: Increase of median lifespan of L4 larvae of Caenorhabditis elegans harboring eat-2 (ad465) at 300 uM after 8 hrs; assay type: functional
[4] = test system: Caenorhabditis elegans; test: […] assessed as trolox equivalent of lipid soluble antioxidant metabolites at 300 uM by photochemiluminescence assay; assay type: functional, organism-based
[5] = test system: Caenorhabditis elegans; test: Increase of lifespan of L4 larvae of Caenorhabditis elegans at 300 uM after 8 hrs in presence of H2O2; assay type: functional, organism-based
[6] = test system: Caenorhabditis elegans; test: Increase of lifespan of L4 larvae of Caenorhabditis elegans assessed as lifespan increasing concentration after 8 hrs; assay type: functional
[7] = test system: Caenorhabditis elegans; test: Increase of lifespan of L4 larvae of Caenorhabditis elegans after 8 hrs in presence of H2O2; assay type: functional, organism-based
[8] = test system: Caenorhabditis elegans; test: […] assessed as ascorbic acid equivalent of water soluble antioxidant metabolites at 300 uM by photochemiluminescence assay; assay type: functional, organism-based
[9] = test system: Caenorhabditis elegans; test: Increase of body length of L4 larvae of Caenorhabditis elegans at 300 uM by microscopic analysis; assay type: functional, organism-based
[10] = test system: Caenorhabditis elegans; test: Increase of lifespan of L4 larvae of Caenorhabditis elegans at 300 uM in presence of heat killed bacteria; assay type: functional, organism-based
[11] = test system: Caenorhabditis elegans; test: Increase of frequency of pharyngeal pumping in Caenorhabditis elegans at 300 uM on 9th day of adulthood; assay type: functional, organism-based
[12] = test system: Caenorhabditis elegans; test: Reduction of frequency of pharyngeal pumping in Caenorhabditis elegans at 300 uM on 3rd to 9th day of adulthood; assay type: functional, organism-based
[13] = test system: Caenorhabditis elegans; test: Increase of lifespan of L4 larvae of Caenorhabditis elegans at 300 uM at 35 degC after 8 hrs; assay type: functional, organism-based
[14] = test system: Caenorhabditis elegans; test: Increase of lifespan of L4 larvae of Caenorhabditis elegans at 35 degC after 8 hrs; assay type: functional, organism-based
[15] = test system: Caenorhabditis elegans; test: Reduction of initial reproduction rate in Caenorhabditis elegans assessed as first egg deposition at 300 uM after 85 hrs; assay type: functional, organism-based
[16] = test system: Caenorhabditis elegans; test: Toxicity in L4 larvae of Caenorhabditis elegans at 800 uM after 8 hrs; assay type: organism-based; details: in vivo
[17] = test system: Caenorhabditis elegans; test: Increase of frequency of pharyngeal pumping in Caenorhabditis elegans at 200 uM on 3rd to 9th day of adulthood; assay type: functional, organism-based
[18] = test system: Caenorhabditis elegans; test: Reduction of frequency of pharyngeal pumping in Caenorhabditis elegans at 200 uM on 3rd to 9th day of adulthood; assay type: functional, organism-based
[19] = test system: Caenorhabditis elegans; test: Increase of lifespan of Caenorhabditis elegans assessed as ascorbic acid equivalent of water soluble antioxidant metabolites at 200 uM by photochemiluminescence assay; assay type: functional, organism-based
[20] = test system: Caenorhabditis elegans; test: Increase of lifespan of Caenorhabditis elegans assessed as trolox equivalent of lipid soluble antioxidant metabolites at 200 uM by photochemiluminescence assay; assay type: functional, organism-based
[21] = test system: Caenorhabditis elegans; test: Reduction of initial reproduction rate in Caenorhabditis elegans assessed as first egg deposition at 200 uM after 85 hrs; assay type: functional, organism-based
[22] = test system: Caenorhabditis elegans; test: Reduction of body length of L4 larvae of Caenorhabditis elegans at 200 uM by microscopic analysis; assay type: functional, organism-based
[23] = test system: Caenorhabditis elegans; test: Reduction of frequency of pharyngeal pumping in Caenorhabditis elegans at 50 uM on 3rd to 9th day of adulthood; assay type: functional, organism-based
[24] = test system: Caenorhabditis elegans; test: […] assessed as ascorbic acid equivalent of water soluble antioxidant metabolites at 50 uM by photochemiluminescence assay; assay type: functional, organism-based
[25] = test system: Caenorhabditis elegans; test: Reduction of body length of L4 larvae of Caenorhabditis elegans at 50 uM by microscopic analysis; assay type: functional, organism-based
[26] = test system: Caenorhabditis elegans; test: Reduction of initial reproduction rate in Caenorhabditis elegans assessed as first egg deposition at 50 uM after 85 hrs; assay type: functional, organism-based
[27] = test system: Caenorhabditis elegans; test: Increase of lifespan of L4 larvae of Caenorhabditis elegans at 50 uM in presence of heat killed bacteria; assay type: functional, organism-based
[28] = test system: Caenorhabditis elegans; test: Reduction of body length of L4 larvae of Caenorhabditis elegans at 100 uM by microscopic analysis; assay type: functional, organism-based
[29] = test system: Caenorhabditis elegans; test: […] assessed as ascorbic acid equivalent of water soluble antioxidant metabolites at 100 uM by photochemiluminescence assay; assay type: functional, organism-based
[30] = test system: Caenorhabditis elegans; test: […] assessed as trolox equivalent of lipid soluble antioxidant metabolites at 100 uM by photochemiluminescence assay; assay type: functional, organism-based
[31] = test system: Caenorhabditis elegans; test: Reduction of triglyceride level in Caenorhabditis elegans at 100 uM; assay type: functional, organism-based
[32] = test system: Caenorhabditis elegans; test: Reduction of initial reproduction rate in Caenorhabditis elegans assessed as first egg deposition at 100 uM after 85 hrs; assay type: functional, organism-based
[33] = test system: Caenorhabditis elegans; test: Reduction of frequency of pharyngeal pumping in Caenorhabditis elegans at 100 uM on 3rd to 9th day of adulthood; assay type: functional, organism-based
[34] = test system: Caenorhabditis elegans; test: Increase of mean lifespan of L4 larvae of Caenorhabditis elegans harboring mev-1 (kn1) mutant at 100 uM after 8 hrs; assay type: functional
[35] = test system: Caenorhabditis elegans; test: Increase of mean lifespan of L4 larvae of wild type Caenorhabditis elegans at 100 uM after 8 hrs; assay type: functional

For `O=C(O)c1cc(O)c(O)c(O)c1` [GALLIC ACID], the Activity [1] was 7%, the Activity [2] was “Active” and the Activity [3] was 11%. For the same molecule, the Activity [4] was “inactive”, the Activity [5] was “inactive” and the Activity [6] was 300 µM. For the same molecule, the Activity [7] was “Active”, the Activity [8] was “inactive” and the Activity [9] was “Active”. For the same molecule, the Activity [10] was “Active”, the Activity [11] was “Active” and the Activity [12] was “inactive”. For the same molecule, the Activity [13] was “inactive”, the Activity [14] was “Active” and the Activity [15] was “Active”. For the same molecule, the Activity [16] was “Non-toxic”.

For `Oc1cc(O)c2c(c1)OC(c1ccc(O)c(O)c1)C(O)C2` (stereo not drawn) [CATECHIN], the Activity [17] was “Active”, the Activity [2] was “Active” and the Activity [18] was “inactive”. For the same molecule, the Activity [19] was “inactive”, the Activity [6] was 200 µM and the Activity [7] was “Active”. The Activity [20] was “inactive”, the Activity [21] was “inactive” and the Activity [14] was “Active”. The Activity [22] was “Active”.

`O=c1oc2c(O)c(O)cc3c(=O)oc4c(O)c(O)cc1c4c23` [ELLAGIC ACID] was tested, and the Activity [23] was “inactive”, the Activity [6] was 50 µM and the Activity [24] was “Active”. The Activity [7] was “inactive”, the Activity [25] was “Active” and the Activity [26] was “Active”. The Activity [16] was “Toxic” and the Activity [27] was “Active”.

`Oc1cc(O)c2c(c1)O[C@H](c1ccc(O)c(O)c1)[C@@H](O)C2` [CATECHIN] was tested, and the Activity [16] was “Non-toxic”.

In the case of `O=C(OC[C@H]1O[C@@H](OC(=O)c2cc(O)c(O)c(OC(=O)c3cc(O)c(O)c(O)c3)c2)[C@H](OC(=O)c2cc(O)c(O)c(OC(=O)c3cc(O)c(O)c(O)c3)c2)[C@@H](OC(=O)c2cc(O)c(O)c(OC(=O)c3cc(O)c(O)c(O)c3)c2)[C@@H]1OC(=O)c1cc(O)c(O)c(OC(=O)c2cc(O)c(O)c(O)c2)c1)c1cc(O)c(O)c(OC(=O)c2cc(O)c(O)c(O)c2)c1` [TANNIC ACID], the Activity [2] is reported as “Active”, the Activity [28] is reported as “Active” and the Activity [29] is reported as “Active”. The Activity [30] was “Active”, the Activity [6] was 100 µM and the Activity [31] was “Active”. For the same molecule, the Activity [7] was “inactive”, the Activity [32] was “Active” and the Activity [33] was “inactive”. For the same molecule, the Activity [34] was 3.2%, the Activity [35] was 17.6% and the Activity [14] was “Active”. The Activity [16] was “Toxic”.
